Experimental data as given in patent US8435976B2, “4-substituted pyridin-3-yl-carboxamide compounds and methods of use” (F. Hoffmann-La Roche, priority 2009, dated 2013).
Read-outs that look alike come from different tables or passages of the source.

How the values were obtained:
[1] = system: RPMI 8226.x1 multiple myeloma xenografts; experiment: RPMI 8226.x1 multiple myeloma xenograft; assay type: in vivo, SCID Beige mice
Procedure: (§1) The efficacy of the combinations of the invention may be measured in vivo by implanting allografts or xenografts of cancer cells in rodents and treating the tumor-bearing animals with the combinations. Variable results are to be expected depending on the cell line, the presence or absence of certain mutations in the tumor cells, the sequence of administration of a formula I compound and chemotherapeutic agent, dosing regimen, and other factors. Subject mice were treated with drug(s) or control (Vehicle) and monitored over several weeks or more to measure the time to tumor doubling, log cell kill, and tumor inhibition.
Dosing of all cohorts commenced on Day 0 when the mean tumor volume of all cohorts was between about 100 to 200 cubic millimeters.

[2] = system: OPM-2 multiple myeloma xenografts; experiment: OPM-2 multiple myeloma xenograft; assay type: in vivo, SCID Beige mice; details: Compound 3 50 mg/kg po qd x21, day 23 vs vehicle
Procedure: as §1
Dosing of all cohorts commenced on Day 0 when the mean tumor volume of all cohorts was between about 100 to 200 cubic millimeters. […] Formula A was tested at as a single agent at a single dose level of 75 mg/kg for which a similar TGI was obtained at day 23.

EOL-1 = EOL-1 cell assay; assay type: cell-based; details: Homo sapiens, EOL1; Table 3
[3] = system: multiple myeloma cell line KMS11; experiment: Cell Titer Glo proliferation and survival assay, KMS11 and other multiple myeloma cell lines; assay type: cell-based; details: Homo sapiens, KMS-11; single agent; ten multiple myeloma cell lines tested; read-out: IC50 against myeloma cell lines, single agent
From the text: The results obtained here are representative of a total of ten multiple myeloma cell lines tested.

MM1.S cells = experiment: MM1.S cell proliferation, 72 hours (Cell Titer Glo); assay type: cell-based; details: Homo sapiens
In short: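 BaF3 parental cells (2 k/well, with 2 ng/mL mIL-3) were treated overnight, and MM1.S cells (10 k/well) were treated for 72 h at 37 °C. Viability was read by CellTiter-Glo luminescence. IC50/EC50 values were calculated from the luminescence data.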

[4] = system: MM1.s multiple myeloma xenografts; experiment: MM1.s multiple myeloma xenograft; assay type: in vivo, SCID mice; details: Compound 3 50 mg/kg po qd, day 18 vs vehicle
Procedure: as §1
Dosing of all cohorts commenced on Day 0 when the mean tumor volume of all cohorts was between about 200 to 300 cubic millimeters. […] Formula A was tested at as a single agent at a single dose level of 75 mg/kg for which a lesser TGI was obtained at day 18.

[5] = system: prostate cancer cell line PC3; experiment: Cell Titer Glo proliferation and survival assay, PC3; assay type: cell-based; details: PC3, FIG. 5
From the text: The results obtained here are representative of a subset of prostate cell lines tested.

SMILES: Nc1sc(-c2c(F)cccc2F)nc1C(=O)Nc1cnccc1N1CCC[C@H](N)C1 [Example 3, (S)-5-amino-N-(4-(3-aminopiperidin-1-yl)pyridin-3-yl)-2-(2,6-difluorophenyl)thiazole-4-carboxamide]
- effect on tumor growth at the lowest dose ([1]; Compound 3 5 mg/kg po qd x21): trend toward accelerated tumor growth, though this trend was not statistically significant
- tumor growth inhibition (TGI) ([1]; Compound 3 50 mg/kg po qd x21, day 27 vs vehicle): about 70%
- tumor growth inhibition (TGI) [2]: about 45%
- IC50 (EOL-1): 10 nM
- IC50 [3]: 100 to 500 nM
- EC50 (MM1.S cells; 72 hours, read-out: Prolif MM1S ATP (EC50)): 49.7 nM
- EC50 (MM1.S cells; Table 3, read-out: MM1.s): 200 nM
- tumor growth inhibition (TGI) [4]: about 60%
- single agent activity, PC3 [5]: little activity
